# ChEMBL document CHEMBL1201862, “PubChem BioAssay data set” (2004)
# Activity calls are given as the source filed them.
# Key:
# H9c2 = assay: cells; type: functional, cell-based; details: Rattus norvegicus, H9c2, Myocardium;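 further: confirmatory concentration-response retest of ultra-high-throughput screening hits for modulation of myocardial damage; cell death induced by hydrogen peroxide oxidative stress; compound pretreatment for 60 min then peroxide exposure for 2 h; potency is for protecting the cells against peroxide damage rather than for killing them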
# HEK293 = assay: EBV LMP1 TES2 canonical NF-kB signalling blockers – cell-based, HEK293, luciferase, cherry-pick, dose response (AID 588343); type: functional, Homo sapiens; details: Homo sapiens, HEK293
# [1] = P. falciparum Dd2 growth inhibitors, dose response, SYBR Green, cherry-picked samples (AID 1159567); type: functional, cell-based
# [2] = target: T1, High affinity choline transporter 1 (Homo sapiens, UniProt Q9GZV3); assay: human choline transporter blockers, potency – cell-based, 5-point CRC, membrane potential dye, dose response (AID 504840); type: functional
# T1 sequence (Q9GZV3 whole entry): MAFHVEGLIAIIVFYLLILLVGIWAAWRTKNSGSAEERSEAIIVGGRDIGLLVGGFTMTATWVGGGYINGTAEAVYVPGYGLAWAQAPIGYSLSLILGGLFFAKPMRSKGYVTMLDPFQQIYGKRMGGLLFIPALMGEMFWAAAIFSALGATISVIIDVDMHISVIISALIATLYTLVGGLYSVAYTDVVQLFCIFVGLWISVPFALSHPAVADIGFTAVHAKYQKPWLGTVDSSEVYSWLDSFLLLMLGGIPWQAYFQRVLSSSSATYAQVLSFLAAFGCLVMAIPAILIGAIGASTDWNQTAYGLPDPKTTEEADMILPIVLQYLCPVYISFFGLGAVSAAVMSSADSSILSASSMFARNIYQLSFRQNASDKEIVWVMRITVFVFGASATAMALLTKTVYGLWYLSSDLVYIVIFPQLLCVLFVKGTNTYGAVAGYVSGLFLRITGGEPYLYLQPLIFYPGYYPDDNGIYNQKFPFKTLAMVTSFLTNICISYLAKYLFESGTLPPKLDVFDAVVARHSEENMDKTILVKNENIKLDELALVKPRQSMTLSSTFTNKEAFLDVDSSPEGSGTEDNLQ
# [3] = target: Luciferin 4-monooxygenase (Photinus pyralis, UniProt P08659); assay: inhibition of purified Photinus pyralis luciferase – biochemical, luminescence, dose response (AID 1891)
# Sequence of Luciferin 4-monooxygenase (P08659 whole entry): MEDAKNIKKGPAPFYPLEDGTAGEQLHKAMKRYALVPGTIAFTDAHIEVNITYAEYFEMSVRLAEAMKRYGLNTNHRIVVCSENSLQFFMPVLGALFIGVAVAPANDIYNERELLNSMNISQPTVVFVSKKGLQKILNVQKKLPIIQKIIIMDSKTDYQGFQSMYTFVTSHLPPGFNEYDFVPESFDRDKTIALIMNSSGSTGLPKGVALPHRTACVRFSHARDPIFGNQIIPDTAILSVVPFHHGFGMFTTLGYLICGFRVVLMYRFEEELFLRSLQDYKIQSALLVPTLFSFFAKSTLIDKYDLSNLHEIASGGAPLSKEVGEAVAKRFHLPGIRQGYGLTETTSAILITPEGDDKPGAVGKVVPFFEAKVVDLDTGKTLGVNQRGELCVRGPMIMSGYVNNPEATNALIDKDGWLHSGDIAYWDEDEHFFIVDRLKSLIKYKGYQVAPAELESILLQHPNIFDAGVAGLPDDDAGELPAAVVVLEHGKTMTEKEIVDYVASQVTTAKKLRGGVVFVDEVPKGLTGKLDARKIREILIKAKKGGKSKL
# [4] = target: T2, Heat shock factor protein 1 (Mus musculus, UniProt P38532); assay: enhancement of HSF1-driven luciferase signal – cell-based, NIH3T3, luminescence, dose retest, confirmation (AID 435004); type: functional;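 further: stress induced by proteasome inhibitor MG132 added 30 min after compound; luciferase reporter driven by HSF1 response element in NIH3T3 cells; actives raise luminescence as potentiators of the MG132 stress response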
# T2 sequence (P38532 whole entry): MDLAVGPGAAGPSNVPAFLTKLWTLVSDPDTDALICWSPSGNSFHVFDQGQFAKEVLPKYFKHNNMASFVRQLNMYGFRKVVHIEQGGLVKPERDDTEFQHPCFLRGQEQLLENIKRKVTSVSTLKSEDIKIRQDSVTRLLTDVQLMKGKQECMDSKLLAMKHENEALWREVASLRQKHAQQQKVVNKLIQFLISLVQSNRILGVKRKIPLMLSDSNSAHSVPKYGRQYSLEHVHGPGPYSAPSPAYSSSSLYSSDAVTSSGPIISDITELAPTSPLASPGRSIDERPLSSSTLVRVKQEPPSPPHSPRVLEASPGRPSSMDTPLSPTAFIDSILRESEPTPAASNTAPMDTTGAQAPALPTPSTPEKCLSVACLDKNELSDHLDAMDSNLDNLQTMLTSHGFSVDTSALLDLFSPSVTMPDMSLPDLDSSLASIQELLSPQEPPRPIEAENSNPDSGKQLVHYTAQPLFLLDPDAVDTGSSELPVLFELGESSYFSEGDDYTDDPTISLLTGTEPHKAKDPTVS
# [5] = Luminescence Cell-Based Dose Confirmation HTS to Identify Inhibitors of Platelet Dense Granule Release. [Related pubchem assays: 1663 (Primary HTS), 1678 (Summary of Project)]; type: functional
# Protein skinhead-1 = target: T3, Protein skinhead-1 (Caenorhabditis elegans, UniProt P34707); type: functional
# T3 sequence (P34707 whole entry): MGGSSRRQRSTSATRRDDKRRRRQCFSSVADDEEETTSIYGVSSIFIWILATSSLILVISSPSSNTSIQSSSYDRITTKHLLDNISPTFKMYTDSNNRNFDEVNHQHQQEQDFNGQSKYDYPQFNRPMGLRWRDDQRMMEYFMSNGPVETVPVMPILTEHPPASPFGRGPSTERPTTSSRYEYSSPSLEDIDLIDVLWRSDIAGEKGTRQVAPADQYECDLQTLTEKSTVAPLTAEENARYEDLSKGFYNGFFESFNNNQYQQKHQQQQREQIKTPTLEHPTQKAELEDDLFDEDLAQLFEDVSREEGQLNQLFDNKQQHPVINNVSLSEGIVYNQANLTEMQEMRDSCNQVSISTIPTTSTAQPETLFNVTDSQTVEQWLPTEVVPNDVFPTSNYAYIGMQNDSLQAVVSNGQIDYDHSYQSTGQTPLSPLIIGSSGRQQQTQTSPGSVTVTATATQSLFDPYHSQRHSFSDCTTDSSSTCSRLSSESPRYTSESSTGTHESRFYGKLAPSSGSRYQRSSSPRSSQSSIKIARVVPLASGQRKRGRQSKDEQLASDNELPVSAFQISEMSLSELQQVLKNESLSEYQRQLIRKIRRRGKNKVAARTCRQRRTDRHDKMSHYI
# [6] = tested on: Streptococcus sp. 'group A'; assay: Streptococcus pyogenes SK(-)GAS viability under kanamycin – luminescence, BacTiterGlo, confirmation, counter-screen for streptokinase expression inhibitor project, dose response (AID 1900); type: functional, organism-based
# cells = type: functional
# Streptococcus = assay: GAS UMAA2166 growth inhibition – luminescence, BacTiterGlo, counter-screen for streptokinase expression inhibitor project, dose response (AID 1915); type: functional, organism-based;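 further: potency for reduction of bacterial viability or growth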
# [7] = THP-1 cell cytotoxicity, dose response, cytotoxicity control for non-replicating M. tuberculosis project (AID 489025); type: functional
# Cytochrome P450 2D6 = Cytochrome P450 2D6 (Homo sapiens, UniProt P10635);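 further: CYP2D6 member of a cytochrome P450 panel assay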
# Sequence of Cytochrome P450 2D6 (P10635 whole entry): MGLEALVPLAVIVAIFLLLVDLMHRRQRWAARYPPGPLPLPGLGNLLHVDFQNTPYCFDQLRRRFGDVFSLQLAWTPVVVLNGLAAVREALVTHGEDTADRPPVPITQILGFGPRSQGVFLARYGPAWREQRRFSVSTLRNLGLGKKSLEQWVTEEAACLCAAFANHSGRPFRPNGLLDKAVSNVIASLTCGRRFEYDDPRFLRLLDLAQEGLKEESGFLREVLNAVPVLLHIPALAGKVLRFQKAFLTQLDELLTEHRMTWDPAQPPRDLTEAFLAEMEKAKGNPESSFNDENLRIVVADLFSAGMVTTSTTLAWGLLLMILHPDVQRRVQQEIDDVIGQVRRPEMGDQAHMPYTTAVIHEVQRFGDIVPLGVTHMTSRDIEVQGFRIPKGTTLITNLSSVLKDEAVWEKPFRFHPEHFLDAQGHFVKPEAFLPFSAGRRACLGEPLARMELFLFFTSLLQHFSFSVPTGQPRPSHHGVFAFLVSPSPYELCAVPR
# [8] = luciferase reporter signal suppression in cells – H4 neuroglioma cells, luminescence, dose response (AID 1990); type: functional, cell-based
# [9] = alpha-synuclein stem-loop luciferase translation blockers – H4 neuroglioma cells, luminescence, confirmation (AID 1988); type: functional, cell-based
# [10] = Luminescence Cell-Based Dose Response HTS to Identify Inhibitors of 5'UTR Stem-Loop Driven Prion Protein mRNA Translation in H4 Neuroglioblastoma Cells. [Related pubchem assays: 1827 (Project Summary), 1813 (Primary HTS)]; type: functional
# BJ [11] = assay: BJ-TERT fibroblast viability loss – cell-based, RAS-independent, luminescence, dose response (AID 1933); type: functional; details: Homo sapiens
# BJ [12] = assay: cells; type: functional, cell-based; details: Homo sapiens
# [13] = DRD fibroblast viability loss – cell-based, non-viral oncogenic, luminescence, dose response (AID 1934); type: functional; details: Homo sapiens
# [14] = target: T4, Replicative DNA helicase DnaB (Mycobacterium tuberculosis, UniProt P9WMR3); assay: DnaB intein splicing inhibitors, dose response, biochemical, cell-free fluorescence (AID 449749); type: functional
# T4 sequence (P9WMR3 whole entry): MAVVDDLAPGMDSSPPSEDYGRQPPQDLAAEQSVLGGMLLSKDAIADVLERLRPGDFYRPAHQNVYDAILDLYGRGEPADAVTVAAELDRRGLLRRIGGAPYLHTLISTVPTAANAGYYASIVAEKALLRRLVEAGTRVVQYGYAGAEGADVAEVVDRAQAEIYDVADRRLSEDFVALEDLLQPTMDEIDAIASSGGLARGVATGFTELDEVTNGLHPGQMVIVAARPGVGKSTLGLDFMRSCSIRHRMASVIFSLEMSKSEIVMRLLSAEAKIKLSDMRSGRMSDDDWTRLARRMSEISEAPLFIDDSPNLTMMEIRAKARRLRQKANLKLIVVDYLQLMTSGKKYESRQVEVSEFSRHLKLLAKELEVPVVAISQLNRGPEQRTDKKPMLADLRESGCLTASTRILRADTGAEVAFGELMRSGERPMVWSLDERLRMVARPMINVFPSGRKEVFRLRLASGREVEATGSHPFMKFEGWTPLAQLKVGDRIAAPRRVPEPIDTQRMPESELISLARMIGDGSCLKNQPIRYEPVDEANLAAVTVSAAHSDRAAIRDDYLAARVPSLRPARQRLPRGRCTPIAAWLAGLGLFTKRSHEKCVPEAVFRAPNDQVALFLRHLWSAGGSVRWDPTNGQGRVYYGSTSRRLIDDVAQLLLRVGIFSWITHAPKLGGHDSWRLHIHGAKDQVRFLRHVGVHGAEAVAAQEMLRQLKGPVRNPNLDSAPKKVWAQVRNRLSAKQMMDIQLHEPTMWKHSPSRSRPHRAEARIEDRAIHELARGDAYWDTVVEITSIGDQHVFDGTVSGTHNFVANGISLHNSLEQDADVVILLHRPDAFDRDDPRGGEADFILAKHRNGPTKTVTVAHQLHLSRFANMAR
# Protein RecA = target: T5, Protein RecA (Mycobacterium tuberculosis, UniProt P9WHJ3); assay: Fluorescence Cell-Free Homogeneous Dose Retest to Identify Inhibitors of RecA-Intein Splicing Activity. [Related pubchem assays (depositor defined):AID2097, AID2223, AID489010, AID492950]; type: functional
# T5 sequence (P9WHJ3 whole entry): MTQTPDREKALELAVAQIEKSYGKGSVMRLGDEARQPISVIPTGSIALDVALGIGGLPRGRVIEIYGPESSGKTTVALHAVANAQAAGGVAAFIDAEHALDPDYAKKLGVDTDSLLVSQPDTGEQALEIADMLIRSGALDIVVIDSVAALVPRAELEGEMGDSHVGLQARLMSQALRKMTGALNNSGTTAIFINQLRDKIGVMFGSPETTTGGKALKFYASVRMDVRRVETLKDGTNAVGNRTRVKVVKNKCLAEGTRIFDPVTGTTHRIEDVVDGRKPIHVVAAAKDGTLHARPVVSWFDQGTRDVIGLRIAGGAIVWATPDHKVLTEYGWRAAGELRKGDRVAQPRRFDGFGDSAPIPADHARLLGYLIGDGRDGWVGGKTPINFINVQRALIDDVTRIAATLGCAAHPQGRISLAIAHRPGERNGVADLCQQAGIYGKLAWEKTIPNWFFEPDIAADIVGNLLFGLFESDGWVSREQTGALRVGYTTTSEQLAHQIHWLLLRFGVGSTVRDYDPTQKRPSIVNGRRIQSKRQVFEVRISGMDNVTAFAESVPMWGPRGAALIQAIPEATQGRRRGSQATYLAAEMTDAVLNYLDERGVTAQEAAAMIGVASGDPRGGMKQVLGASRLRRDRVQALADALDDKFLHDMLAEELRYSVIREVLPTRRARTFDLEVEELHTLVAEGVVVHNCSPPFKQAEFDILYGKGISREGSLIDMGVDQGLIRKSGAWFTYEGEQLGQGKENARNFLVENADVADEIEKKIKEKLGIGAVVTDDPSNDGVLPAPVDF
# BJ [15] = assay: BJ-TERT-LT-ST fibroblast viability loss – cell-based, RAS-independent, luminescence, dose response (AID 1935); type: functional; details: Homo sapiens;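 further: BJ fibroblasts immortalized with TERT plus LT and ST oncogenes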
smiles,measurement,setting,value
O=C(c1cc(O)nc2ccccc12)N1CCN(S(=O)(=O)c2ccc(Cl)cc2)CC1,IC50,H9c2,14.4 µM (active)
Cc1cc2cc(CN(Cc3ccco3)S(=O)(=O)c3c(C)ccc4nsnc34)c(O)nc2cc1C,AC50,HEK293,0.968 µM (active)
CCCC(=O)N1CCC2(CC1)CN[C@@H](CO)c1[nH]c3cc(OC)ccc3c12,AC50,[1],6.24 µM (active)
CC(C)(C)CC(C)(C)N=C(S)Nc1ccc2nc(-c3ccccn3)c(-c3ccccn3)nc2c1,IC50,[2],26.3 µM (active)
C[C@H]1CN([C@@H](C)CO)C(=O)c2c(c3ccccc3n2C)-c2ccccc2CO[C@@H]1CN(C)S(=O)(=O)c1ccccc1F,AC50,[1],3.81 µM (active)
COc1ccc(/C=N/Nc2cc(OC)ncn2)cc1,EC50,[3],6.11 µM (active)
same,AC50,HEK293,11.2 µM (active)
same,EC50,[4],> 260 µM (inactive)
same,EC50,[5],5.24 µM (active)
O=C(Nc1ccccc1)OCCCc1ccccc1 [3-PHENYLPROPYL PHENYLCARBAMATE],IC50,Protein skinhead-1,68.6 µM (inactive)
COc1ccc2c3c([nH]c2c1)[C@@H](CO)N(Cc1cccc(Cl)c1)CC31CN(C(C)=O)C1,AC50,[1],10.6 µM (active)
CN(CCC#N)c1ncnc2scc(-c3ccccc3)c12,IC50,[2],12.3 µM (active)
CCN1CCn2c3c(c4cccc(C)c42)CCCC31 (stereo not drawn),IC50,[2],14.5 µM (active)
COc1ccc2c3c([nH]c2c1)[C@@H](CO)N(C(=O)Cc1ccccc1)CC31CCN(C(=O)Cc2ccccc2)CC1,AC50,[1],4.77 µM (active)
COC(=O)C1=C(C)N=C(C)/C(=C(/O)OC)C1c1ccc(OC(=O)c2ccco2)cc1 (stereo not drawn),IC50,Protein skinhead-1,> 100 µM (inactive)
O=C(Nc1nnc(-c2ccco2)o1)c1ccc(Cl)s1,EC50,[6],3.01 µM (active)
same,IC50,cells,1.57 µM (active)
same,EC50,Streptococcus,10.1 µM (active)
same,CC50,[7],> 40 µM (active)
O=C1C2CCCN2c2ccc(S(=O)(=O)N3CCOCC3)cc2N1Cc1ccccc1F (stereo not drawn),AC50,HEK293,> 350 µM (inactive)
CCC(NC(=O)CCc1nnc(-c2cc(C)on2)o1)C12CC3CC(CC(C3)C1)C2 (stereo not drawn),IC50,[2],14.5 µM (active)
C=CCNc1nc(-c2ccc(Cl)cc2)cs1,AC50,Cytochrome P450 2D6,25.1 µM (inconclusive)
same,IC50,Protein skinhead-1,> 100 µM (inactive)
CC(C)NC[C@H](O)c1ccc(O)c(O)c1,IC50,[2],4.17e-05 µM (inconclusive)
Cc1cccc(Cn2c(Sc3nc(C)cs3)nc3c2c(=O)[nH]c(=O)n3C)c1,IC50,Protein skinhead-1,> 100 µM (inactive)
CCN1CCn2c3c(c4cc(Cl)ccc42)CCCC31 (stereo not drawn),IC50,[2],3.31 µM (active)
O=C(NNc1cc(Cl)cc(Cl)c1)c1cccs1,IC50,[2],16.2 µM (active)
CCCNC(=O)N1CCC2(CC1)CN(Cc1cccc(F)c1)[C@@H](CO)c1[nH]c3cc(OC)ccc3c12,AC50,[1],10.2 µM (active)
CC(C)c1ccc(NC(=O)NCc2cccnc2)cc1,IC50,Protein skinhead-1,> 100 µM (inactive)
O=C(Nc1ncc([N+](=O)[O-])s1)c1ccc2c(c1)OCO2,EC50,[8],4.23 µM (active)
same,EC50,[9],3.42 µM (active)
same,EC50,[10],7.3 µM (active)
same,EC50,[3],0.324 µM (active)
same,EC50,BJ [11],14.1 µM (active)
same,IC50,cells,34.4 µM (active)
same,EC50,BJ [12],13.5 µM (active)
same,EC50,[13],10.3 µM (active)
same,AC50,[14],21.2 µM (active)
same,EC50,[5],2.39 µM (active)
same,EC50,Protein RecA,16.5 µM (active)
same,CC50,[7],28.9 µM (active)
same,EC50,BJ [15],> 150 µM (inconclusive)
COc1cccc(C(=O)O/N=C(\N)c2ccccn2)c1OC,AC50,HEK293,2.67 µM (active)
